# Measured values from a melting point compilation (Tetko et al.; mined from patent text by program, amines drawn as free bases though some values may be those of a salt).
row,SMILES,melting point [°C]
1,O=[N+]([O-])c1cc(Cl)cc(C(O)c2cc(Cl)cc([N+](=O)[O-])c2O)c1O,180
2,Nc1ccc(CCN2CCN(c3ccc(N)cc3Cl)CC2)cc1,109 to 112
3,CC(C)c1cc(O)n[nH]1,189 to 193
4,C=CCN(C)C(=O)/C=C/CSc1nc(N)cc(Cl)n1,140 to 142
5,O=C(OCC1OC(n2cnc3c(NOCc4ccccc4)nc(Cl)nc32)C(OC(=O)c2ccccc2)C1OC(=O)c1ccccc1)c1ccccc1 (stereo not given),115 to 119
6,COC(=O)CCCC(=O)N(C)CCc1c[nH]c2ccccc12,101 to 102
7,CCOC(=O)c1nc(O)sc1C(C)=O,105 to 108
8,O=C(O)[C@H](Cc1cccc(C(F)(F)F)c1)[C@@H](O)c1ccc(F)cc1 (racemic),116 to 118
9,N#CC1CCC(c2ccc(N)cc2)CC1 (stereo not given),132 to 140
10,"CC1(C)OC2C=CC(=O)C2O1 (single isomer, unassigned; (+))",68 to 69
11,CCCc1c(C2CCC(c3ccccc3)(N(C)C)CC2)[nH]c2ccccc12 (stereo not given),177 to 181
12,CC(=O)NCC1(N2CCCCC2)CCCCC1,104
13,CN(C)C1CCN(C(=O)N2CCC(c3[nH]nc4c3C(=O)c3c(NC(=O)NN5CCOCC5)cccc3-4)CC2)CC1,172 to 174
14,CC12CCC3C(CCC4=CC(=O)CCC43CO)C1CCC2O (stereo not given),205 to 207
15,COc1ccc(C2(C)CNC(=O)O2)cc1OC(C)C (stereo not given),67 to 69.5
16,CCCC1=C(C#N)S(=O)(=O)c2ccc(C(F)(F)F)cc2N1,200
17,CC1=C(C(=O)OC2CN(C(c3ccccc3)c3ccccc3)C2)C(c2cccc([N+](=O)[O-])c2)C(C(=O)OC(C)C)=C(N)N1 (stereo not given),104 to 107
18,O=C(O)c1cnc(Nc2ccccc2O)[nH]c1=O,254 to 256
19,CCCCCCOc1ccc2cc([C@H]3CC[C@H](CCCCCC)CC3)ccc2c1,48
20,CCCN1C(=O)CN(C)C1S(=O)(=O)N=NC(=O)Nc1nc(OC)cc(OC)n1 (stereo not given),96 to 98
21,Cn1ncc(C(=O)N2CCCC2)c1C(=O)Nc1cc2nc(-c3ccccc3)nn2cc1F,250 to 251
22,COc1ccc2[nH]c3c(c2c1)CC(=O)Nc1cccnc1-3,> 330
23,CCCc1c(OCCCCCOc2ccc(Cl)cc2CCC(=O)O)ccc2c1OCCC2=O,101 to 103
24,O=C(Nc1cc([N+](=O)[O-])ccc1F)C(F)(F)F,112 to 113
25,O=c1[nH]c2ncc(-c3cnc4[nH]cnc4c3)nc2n1CC1CCOCC1,367 to 370
26,NC(=O)C1=CCNCC1,104 to 106
27,O=C1CC(=O)N(c2ccccc2)c2ccccc2N1NCCC1C2CC3CC(C2)CC1C3 (stereo not given),196 to 197
28,CC1(C)CCC(C)(C)c2cc3c(cc21)C(C)(C)CCC3(C)C,218 to 221

# The next lines start with the values.
row,melting point [°C],SMILES
1,97 to 100,C#Cc1ccc2c(C(=O)c3ccc(OCCN4CCCCC4)cc3)c(-c3ccc(O)cc3)sc2c1
2,212 to 216,CC(=O)NC(C)(C)c1ccc(-c2nc(Nc3ccc(F)cc3)ncc2C#N)cc1
3,75 to 77,Cc1nc(C)c(C(=O)OCC2CCCO2)c(-c2cccc([N+](=O)[O-])c2)c1C(=O)OCC1CCCO1 (stereo not given)
4,300,COC(=O)Nc1nc2ccc(O)cc2[nH]1
5,266 to 268,CC(C)(C)c1ccc(-c2nnc(-c3ccc(C(=O)O)cc3N)o2)cc1
6,176 to 179,CCOC(=O)c1cn(CC)c2cc(N3CCN(C)CC3)c(F)cc2c1=O
7,220 to 221,CCn1cc(C(=O)O)c(=O)c2cc(F)c(N3CCN(Cc4ccc(N)cc4)CC3)c(F)c21
8,159 to 162,CCOC(=O)c1cnc2c(NC(=O)c3c(Cl)cccc3Cl)cccc2c1C
9,170,COC1(OC)C(=O)Nc2ccc(C(=O)c3ccc(Cl)cc3)cc21
10,130,COc1cc2c(cc1OC)CN(CC(O)c1ccc([N+](=O)[O-])cc1)CC2 (stereo not given)
11,95 to 97,COc1ccc2cc(C(=O)c3ccc(C)c(C)c3)oc2c1
12,186 to 192,Nc1nc2nc(SCc3ccccc3)ncc2cc1Oc1ccc(F)cc1
13,174 to 175,CCN(c1ccccc1)c1nc(=O)c2cccnc2s1
14,152 to 155,CCC(=O)Nc1c(C(=O)c2cccc(C)c2)[nH]c2cc(Cl)ccc12
15,122 to 124,CCOC(=O)c1ccc(NCCCc2ccc(Cl)cc2)cc1
16,138 to 146,CC1=C(c2ccc(O)cc2)C(=O)c2ccc(O)cc21
17,68,COC(=O)c1ccc(C(O)c2cc3cc(C(F)(F)F)ccc3n2S(=O)(=O)c2ccc(C(C)C)cc2)cc1 (stereo not given)
18,216 to 217,N#Cc1cc(F)ccc1Oc1ccc(-c2cn(C3CCOCC3)c3ncnc(N)c23)cc1
19,91 to 93,Cc1nnc(-c2ccc(C)c(Br)c2)o1
20,107 to 109,COc1cccc(-c2cn3c(n2)CCc2ccccc2-3)c1
21,> 260,Cc1ccc(NC(=O)N(C)Cc2cccc3c2C(=O)N(C2CCC(=O)NC2=O)C3=O)cc1 (stereo not given)

row,melting point [°C],SMILES
1,154 to 155,Cc1ccccc1-c1c(NC(=O)OC(C)(C)C)c(=O)oc2cc3c(cc12)CCC3
2,78 to 80,CCOP(=O)(OCC)C(Sc1cc(C(C)(C)C)c(O)c(C(C)(C)C)c1)P(=O)(OCC)OCC
3,226 to 227,CCCCn1c(=O)[nH]c2cccc(OCC3CO3)c21 (stereo not given)
4,135 to 137,CN(C)C(=O)C(CCO)C1CCc2[nH]c3ccccc3c21 (stereo not given)
5,131 to 132,C=CC(c1ccccc1)c1cc(C)c2c(c1O)C(=O)CC2 (stereo not given)
6,124 to 126,CCOC(=O)C1Oc2cc(C(=O)c3ccnn3C)c(Cl)c(Cl)c2O1 (stereo not given)
7,186,Cc1cc2c(cc1Cl)NC(=O)C2c1ccccc1Cl (stereo not given)
8,280,Cc1ccc(N2C(=O)C(O)=C(C(=O)c3ccc(C(C)C)cc3)C2c2ccc(Oc3ccccn3)cc2)nn1 (stereo not given)
9,268 to 270,Oc1ccc(Nc2nccc(-c3ccncc3)n2)cc1
10,78 to 80,C=CCOc1ccc2ccc(O)cc2c1
11,262 to 264,COc1ccc(-c2c(=O)[nH]c3cc(Cl)c(Cl)cc3[n+]2[O-])cc1
12,190 to 192,CC(C)c1cccc(C(C)C)c1NC(=O)CNC(c1ccccc1)c1ccc(O)cc1 (stereo not given)
13,229 to 230,Cc1cc(Cc2n[nH]c(=O)c3ccccc23)cc(C)n1
14,64 to 65,CCOC(=O)c1c(C)cc2c(c1C)c(=O)n(-c1ccccc1Cl)c(=O)n2CC(=O)N1CCN(C)CC1
15,165,Cc1cc2nc(C)c(CCCl)c(=O)n2o1
16,194 to 195,Cc1ccc(-c2c(O)nn(CCO[Si](C)(C)C(C)(C)C)c2N)cc1
17,110 to 114,O=C(O)c1cccc(-c2ccc(Cl)c3cc(Cc4cc(F)cc(Cl)c4)sc23)c1
18,77.9 to 78.2,CCCC(=O)Oc1ccc(-c2ccc(C#N)cc2)cc1
19,90 to 95,CCC1CCCCN(C(=O)C2Cc3ccccc3N2c2ccc(=O)n(C)n2)C1 (stereo not given)
20,222 to 224,Cc1cccc(-c2c(Cl)ccc3c2C=C(C(=O)O)C(C(F)(F)F)O3)c1 (stereo not given)
21,139,CCOC(=O)CCCOc1cccc(Oc2nc(OC)cc(OC)n2)c1C=NNc1ccc(Cl)cc1
